From publication PMC12770474 (Nature Communications, 2025)

Assays:
[1] = molecular target: T1, CTSK (Homo sapiens, UniProt P43235); assay: Zeta potential of the enzymolysis reaction mixture with and without CTSK; assay type: physicochemical; settings: 64 μM peptide
T1 sequence (P43235 115-329): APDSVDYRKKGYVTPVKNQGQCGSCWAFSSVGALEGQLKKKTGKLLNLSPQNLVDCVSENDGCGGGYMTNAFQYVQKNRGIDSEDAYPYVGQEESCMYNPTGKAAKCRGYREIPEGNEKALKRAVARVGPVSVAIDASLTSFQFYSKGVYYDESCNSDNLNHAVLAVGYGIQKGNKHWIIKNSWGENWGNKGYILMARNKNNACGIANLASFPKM

[2] = Dynamic light scattering; assay type: physicochemical; settings: self-assembled nanoparticles, aqueous solution pH 7.4, 64 μM, Zetasizer
[3] = TEM morphology of peptide assemblies in PBS; settings: 64 μM in PBS pH 7.4, 8 h incubation
[4] = test system: OCs formed by BMMs; assay: TRAP staining of RANKL-induced OCs formed by BMMs; assay type: cell-based, mice; settings: TRAP staining day 6, n = 5
[5] = test system: BMMs; assay: CCK-8 cytotoxicity assay, BMMs; assay type: cell-based, mice; settings: CCK-8, 24 h, different concentrations, n = 3
[6] = Zeta potential of peptide assemblies; assay type: physicochemical; settings: self-assembled peptide, 64 μM, Zetasizer, n = 3
[7] = test system: OVX mice; settings: mouse, in vivo
[8] = test system: OCs; assay: Tunel staining of OCs apoptosis; assay type: cell-based, mice; settings: BGD 64 μM or ALD 500 μM, 24 h, n = 3

## Bip-FFWKYK-GHPAAPQ-DDDDDD [BAD]
[1]; MES buffer pH 5.5, with CTSK 800 ng/ml
  zeta potential of reaction mixture, presence of CTSK / after cleavage: −9.5 mV
[1]; MES buffer pH 5.5, without CTSK
  zeta potential of reaction mixture, absence of CTSK / before cleavage: −14.3 mV
[2]
  average size of nanoparticles (DLS): 36.6 nm
[3]
  morphology of assemblies (TEM): dispersed, nearly spherical nanoparticles
[4]; peptide (64 μM) added on day 5 of RANKL induction
  number of TRAP-positive OCs vs RANKL control: no significant effect
[5]
  cytotoxicity toward BMMs: consistent cytocompatibility
[6]
  Zeta potential: −20.8 mV

## NCCCC(O)(P(=O)(O)O)P(=O)(O)O [ALD, Alendronate]
[7]
  micro-CT bone parameters (BMD, BV/TV, Tb.Th, Tb.N, Tb.Sp) vs OVX: significantly improved
[8]
  cells undergoing apoptosis (Tunel staining): a large number of OCs and pre-OCs underwent apoptosis

## CCCN1CCN(c2ccc(C(=O)NC3(C(=O)NCC#N)CCCCC3)cc2)CC1 [Balicatib, reference compound]
[4]; 20 nM on day 5 of RANKL induction
  OCs formation, inhibitor alone: did not inhibit OCs formation

## Bip-FFWKYK-GHPGGPQ-NNNNNN [BGN]
[5]
  cytotoxicity toward BMMs: biocompatible
[6]
  Zeta potential: −26.4 mV

## Bip-FFWKYK-GHPGGPQ-KKKKKK [BGK]
[5]
  cytotoxicity toward BMMs: exhibited cytotoxicity at 32 μM
[6]
  Zeta potential: +11.2 mV
